A word on the melting point: it is the temperature, or range, at which the solid turns liquid. By EC50 is commonly meant the concentration needed to bring the measured effect to its halfway point.

The source of these data is PMC8446315, “Synthesis, biological evaluation, molecular modeling, and structural analysis of new pyrazole and pyrazolone derivatives as N‐formyl peptide receptors agonists” (Chemical Biology & Drug Design, 2021).

Read-outs that look alike come from different tables or passages of the source.

Series [1] relates to healthy human subject. More on the design: method as in Lind et al., 2019; Stalder et al., 2017. Particulars: phase I clinical trial, ref Lind et al., 2019, Stalder et al., 2017; cited from earlier work.
The test system of series [2] is rat model of rheumatoid arthritis. More on the design: method as in Crocetti et al., 2020. To be noted: ref Crocetti et al., 2020; cited from earlier work.
In series [3] the test system is human neutrophils (hPMN). Kind of series: Ca2+ mobilization in human neutrophils (hPMN). Type of series: cell-based. To be noted: for efficacy (%) hPMN: % of the response induced by 5 nM fMLF; for EC50: Homo sapiens, Neutrophil. The source says:
Blood was collected from healthy donors in accordance with a protocol approved by the Institutional Review Board at Montana State University. Neutrophils were purified from the blood using dextran sedimentation, followed by Histopaque 1077 gradient separation and hypotonic lysis of red blood cells. Isolated neutrophils were washed twice and resuspended in HBSS^‐. Neutrophil preparations were routinely >95% pure, as determined by light microscopy, and >98% viable, as determined by trypan blue exclusion.
Changes in intracellular Ca^2+ were measured with a FlexStation II scanning fluorometer (Molecular Devices). The cells, suspended in Hank's balanced salt solution without Ca^2+ and Mg^2+ but with 10 mM HEPES (HBSS^‐), were loaded with 1.25 μg/ml Fluo‐4 a.m. dye and incubated for 30 min in the dark at 37°C. After dye loading, the cells were washed with HBSS^‐ containing 10 mM HEPES, resuspended in HBSS^+ containing Ca^2+, Mg^2+, and 10 mM HEPES (HBSS^+), and aliquoted into the wells of flat‐bottom, half‐area‐well black microtiter plates (2 × 10^5 cells/well). For evaluation of direct agonist activity, compounds of interest were added from a source plate containing dilutions of test compounds in HBSS^+, and changes in fluorescence were monitored (λex = 485 nm, λem = 538 nm) every 5 s for 240 s at room temperature after automated addition of compounds. Maximum change in fluorescence during the first 3 min, expressed in arbitrary units over baseline, was used to determine a response. […] Curve fitting (5–6 points) and calculation of median effective […] were performed by nonlinear regression analysis of the dose–response curves generated using Prism 7 (GraphPad Software, Inc.).
Background: Calcium assays in cells follow changes in intracellular calcium, usually with a dye or a luminescent sensor.

The target of series [4] is T1, FPR1 (Homo sapiens, UniProt P21462).
T1 construct: expressed in transfected cells
T1 sequence (P21462 1-350): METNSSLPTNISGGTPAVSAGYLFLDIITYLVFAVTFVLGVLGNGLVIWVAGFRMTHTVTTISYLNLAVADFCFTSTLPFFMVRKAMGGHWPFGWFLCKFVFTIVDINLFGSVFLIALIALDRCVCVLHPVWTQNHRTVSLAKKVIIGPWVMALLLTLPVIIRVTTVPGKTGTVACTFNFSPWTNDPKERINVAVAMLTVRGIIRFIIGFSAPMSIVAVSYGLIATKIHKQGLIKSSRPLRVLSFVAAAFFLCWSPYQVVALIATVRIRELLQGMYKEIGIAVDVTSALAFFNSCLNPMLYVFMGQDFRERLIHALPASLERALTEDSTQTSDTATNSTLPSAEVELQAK
Kind of series: Ca2+ mobilization in FPR1-transfected HL60 cells. Particulars: for efficacy (%) HL60‐FPR1: % of the response induced by 5 nM fMLF. Type of series: cell-based.
Protocol: (§1) Although stable cell lines are cultured under G418 selection pressure, G418 may affect some assays, so it was removed in the last round of culture before assays were performed.
(§2) Changes in intracellular Ca^2+ were measured with a FlexStation II scanning fluorometer (Molecular Devices). The cells, suspended in Hank's balanced salt solution without Ca^2+ and Mg^2+ but with 10 mM HEPES (HBSS^‐), were loaded with 1.25 μg/ml Fluo‐4 a.m. dye and incubated for 30 min in the dark at 37°C. After dye loading, the cells were washed with HBSS^‐ containing 10 mM HEPES, resuspended in HBSS^+ containing Ca^2+, Mg^2+, and 10 mM HEPES (HBSS^+), and aliquoted into the wells of flat‐bottom, half‐area‐well black microtiter plates (2 × 10^5 cells/well). For evaluation of direct agonist activity, compounds of interest were added from a source plate containing dilutions of test compounds in HBSS^+, and changes in fluorescence were monitored (λex = 485 nm, λem = 538 nm) every 5 s for 240 s at room temperature after automated addition of compounds. Maximum change in fluorescence during the first 3 min, expressed in arbitrary units over baseline, was used to determine a response. […] Curve fitting (5–6 points) and calculation of median effective inhibitory concentrations (IC50) were performed by nonlinear regression analysis of the dose–response curves generated using Prism 7 (GraphPad Software, Inc.).

Series [5] deals with T2, FPR2 (Homo sapiens, UniProt P25090).
T2 construct: expressed in transfected cells
T2 sequence (P25090 1-351): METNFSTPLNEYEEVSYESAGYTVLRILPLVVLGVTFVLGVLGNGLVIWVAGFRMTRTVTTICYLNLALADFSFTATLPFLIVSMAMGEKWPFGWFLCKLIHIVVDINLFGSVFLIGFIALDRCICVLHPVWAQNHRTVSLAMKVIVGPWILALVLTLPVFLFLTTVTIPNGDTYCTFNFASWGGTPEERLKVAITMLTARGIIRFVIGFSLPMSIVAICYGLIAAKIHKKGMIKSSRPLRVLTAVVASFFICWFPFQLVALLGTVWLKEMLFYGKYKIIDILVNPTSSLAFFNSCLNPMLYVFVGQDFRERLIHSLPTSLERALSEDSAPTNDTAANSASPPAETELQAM
Kind of series: Ca2+ mobilization in FPR2-transfected HL60 cells. Particulars: for efficacy (%) HL60‐FPR2: % of the response induced by 5 nM WKYMVm. Type of series: cell-based.
Protocol: as §1, §2

Series [6] relates to animal models of rheumatoid arthritis. More on the design: method as in Burli et al., 2006; Odobasic et al., 2018. Particulars: ref Burli et al., 2006; Odobasic et al., 2018; cited from earlier work.
The subject of series [7] is FPR3. To be noted: Figure 2, ref Vergelli et al., cited from earlier work.
[8] abbreviates: Ca2+ mobilization, mean of three independent experiments, N.A. = no activity (limits efficacy <20% and EC50 < 50 µM).

For `Cc1cccc(-c2oc(C)nc2C(=O)Nc2cnn(Cc3nc(C(C)(F)F)co3)n2)c1` [Act‐389949], the safety and tolerability entry in series [1] is “safe and well tolerated”.

`COc1cccc(-c2cc(C#N)c(=O)n(CC(=O)Nc3ccc(Br)cc3)c2C)c1` [Compound 2a]: the “anti‐inflammatory activity in vivo” value in series [2] is “anti‐inflammatory activity”.

In the case of `COc1ccc(Nc2c(C#N)cnn2CC(=O)Nc2ccc(Br)cc2)cc1` [Compound 4b, N‐(4‐Bromophenyl)‐2‐[4‐cyano‐5‐(4‐methoxyphenylamino)pyrazol‐1‐yl]acetamide], the melting point lay in the range of 136 to 139 °C.

As for `COc1cccc(Nc2c(C)c(-c3ccccc3)nn2CC(=O)Nc2ccc(Br)cc2)c1` [Compound 4c, N‐(4‐Bromophenyl)‐2‐[5‐(3‐methoxyphenylamino)‐4‐methyl‐3‐phenylpyrazol‐1‐yl]acetamide], the melting point is > 300 °C (dec.).

For `COc1ccc(Nc2c(C)c(-c3ccccc3)nn2CC(=O)Nc2ccc(Br)cc2)cc1` [Compound 4d, N‐(4‐Bromophenyl)‐2‐[5‐(4‐methoxyphenylamino)‐4‐methyl‐3‐phenylpyrazol‐1‐yl]acetamide], the melting point is 212 to 214 °C.

Take `COc1cccc(Nc2ccnn2CC(=O)Nc2ccc(Br)cc2)c1` [Compound 4e, N‐(4‐Bromophenyl)‐2‐[5‐(3‐methoxyphenylamino)‐pyrazol‐1‐yl]acetamide]: the melting point fell in the range of 140 to 143 °C. In series [3], the “efficacy (%) hPMN” value came to 75% and a half-maximal effect (EC50) was put at 8.2 ± 2.6 µM. In series [4], the midpoint of the response, the EC50, lay at 13.2 ± 2.6 µM and the “efficacy (%) HL60‐FPR1” value is 85%. Also, in series [5], a half-maximal effect (EC50) was put at 23.4 ± 5.3 µM and the “efficacy (%) HL60‐FPR2” value is reported as 60%.

As to `COc1cccc(-c2nn(CC(=O)Nc3ccc(Br)cc3)c(C)c2C#N)c1` [Compound 7a, N‐(4‐Bromophenyl)‐2‐[4‐cyano‐3‐(3‐methoxyphenyl)‐5‐methylpyrazol‐1‐yl]acetamide], in series [3], the “efficacy (%) hPMN” value is reported as 80% and the EC50 was found to be 6.5 ± 1.6 µM. Further, in series [4], the EC50 worked out at 18.4 ± 4.3 µM and the “efficacy (%) HL60‐FPR1” value was 75%. In series [5], the EC50 was found to be 6.1 ± 2.2 µM and the “efficacy (%) HL60‐FPR2” value is on record as 75%. Besides, the “preference for FPR2” value in series [5] (FPR2 over FPR1, from EC50 values) is “threefold”.

Molecule `O=C(Cn1c(=O)ccn1-c1ccccc1)Nc1ccc(Br)cc1` [Compound 9a, N‐(4‐Bromophenyl)‐2‐(5‐oxo‐2‐phenyl‐2,5‐dihydropyrazol‐1‐yl)acetamide] came in with a melting point of 136 to 139 °C.

Molecule `Nc1cn(-c2ccccc2)n(CC(=O)Nc2ccc(Br)cc2)c1=O` [Compound 9b, 2‐(4‐Amino‐5‐oxo‐2‐phenyl‐2,5‐dihydropyrazol‐1‐yl)‐N‐(4‐bromophenyl)acetamide] registered a melting point of 160 to 163 °C. The “EC50 (µM) hPMN” value in series [3] (Ca2+ mobilization in human neutrophils, mean of three independent experiments, N.A. = no activity (limits efficacy <20% and EC50 < 50 µM)) is “inactive”. Also, in series [5], the EC50 turned out to be 23.1 ± 6.3 µM and the “efficacy (%) HL60‐FPR2” value worked out at 50%.

Molecule `COc1cccc(Nc2cn(-c3ccccc3)n(CC(=O)Nc3ccc(Br)cc3)c2=O)c1` [Compound 10, N‐(4‐Bromophenyl)‐2‐[4‐(3‐methoxyphenylamino)‐5‐oxo‐2‐phenyl‐2,5‐dihydropyrazol‐1‐yl]acetamide] returned a melting point of 163 to 166 °C.

For `CCCCCCn1c(=O)c(-c2cccc(OC)c2)cn1-c1ccccc1` [Compound 13f, Hexyl‐4‐(3‐methoxyphenyl)‐1‐phenyl‐1,2‐dihydropyrazol‐3‐one], in series [3], the “efficacy (%) hPMN” value amounted to 55% and the concentration giving a half-maximal response (EC50) was 13.8 ± 4.2 µM. For the same molecule, in series [4], the EC50 is 20.2 ± 5.4 µM and the “efficacy (%) HL60‐FPR1” value is 35%. For the same molecule, in series [5], the EC50 amounted to 10.5 ± 3.5 µM and the “efficacy (%) HL60‐FPR2” value is recorded as 90%.

Regarding `Cc1cc(OCC(=O)Nc2ccc(Br)cc2)n[nH]1` [Compound 15, N‐(4‐bromophenyl)‐2‐[(5‐methyl‐1H‐pyrazol‐3‐yl)oxy]acetamide], in series [3], the “efficacy (%) hPMN” value was determined as 55% and the EC50 came out at 18.6 ± 4.7 µM. Besides, in series [4], a half-maximal effect (EC50) was put at 9.8 ± 2.7 µM and the “efficacy (%) HL60‐FPR1” value is 60%. Moreover, in series [5], the response was half-maximal at 25.9 ± 6.4 µM (EC50) and the “efficacy (%) HL60‐FPR2” value is given as 60%.

Consider `CC(C)c1c(NC(=O)Nc2ccc(Cl)cc2)c(=O)n(-c2ccccc2)n1C` [Cpd43], for which the “profile in animal models of rheumatoid arthritis” value in series [6] is given as “excellent profile”.

Consider `COc1cccc(Cc2c(C)c(C)nn(CC(=O)Nc3ccc(Br)cc3)c2=O)c1` [EC3, reference compound], for which the “efficacy (%) hPMN” value in series [3] stood at 150%. For the same molecule, the results for the EC50 in series [7] (2017), in series [4] (setting [8]) and in series [5] (setting [8]) were 0.04 µM, 0.019 ± 0.005 µM and 0.043 ± 0.0016 µM, respectively. The “anti‐inflammatory activity in vivo” value in series [2] is “anti‐inflammatory activity”. Moreover, in series [4], the “efficacy (%) HL60‐FPR1” value worked out at 85%. For the same molecule, in series [5], the “efficacy (%) HL60‐FPR2” value was 80%.

In the case of `COc1cccc(Nc2c(C(C)=O)c(C)nn(CC(=O)Nc3ccc(Br)cc3)c2=O)c1` [EC10, reference compound], the “efficacy (%) hPMN” value in series [3] was 150%. The EC50 in series [3] was 0.036 ± 0.007 µM; in series [7] (2016), 0.21 µM; in series [4] (setting [8]) it was 0.045 ± 0.016 µM; in series [5] (setting [8]) it was 0.17 ± 0.038 µM. Besides, the “anti‐inflammatory activity in vivo” value in series [2] is listed as “anti‐inflammatory activity”. Further, the “efficacy (%) HL60‐FPR1” value in series [4] is on record as 185%. In addition, the “efficacy (%) HL60‐FPR2” value in series [5] was found to be 60%.
